Reference: PubChem BioAssay (NCI)
Where “and” joins values, the source holds several entries; their conditions need not be identical. Equal entries are not always repeated.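 Cells were grown in 96-well plates and exposed to each compound for 48 hours at five concentrations; endpoints were interpolated linearly between bracketing concentrations, or set to the highest concentration if not reached. Here, GI50 denotes the concentration required for 50% inhibition of growth. TGI: total growth inhibition.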

How the values were obtained:
Assay in all cases: NCI-60 cell line screen, 48 h
SW-620 colon = test system: SW-620 colon
EKVX NSCLC = test system: EKVX NSCLC
SN12C renal = test system: SN12C renal
UACC-62 melanoma = test system: UACC-62 melanoma
SF-539 CNS = test system: SF-539 CNS
DU-145 prostate = test system: DU-145 prostate
NCI/ADR-RES ovarian = test system: NCI/ADR-RES ovarian
LOX IMVI melanoma = test system: LOX IMVI melanoma
OVCAR-8 ovarian = test system: OVCAR-8 ovarian
MDA-MB-435 = test system: MDA-MB-435
CAKI-1 renal = test system: CAKI-1 renal
K-562 leukemia = test system: K-562 leukemia
T-47D breast = test system: T-47D breast
SNB-75 CNS = test system: SNB-75 CNS
BT-549 breast = test system: BT-549 breast
MCF7 breast = test system: MCF7 breast
M14 melanoma = test system: M14 melanoma
HCT-116 colon = test system: HCT-116 colon
SK-MEL-5 melanoma = test system: SK-MEL-5 melanoma
IGROV1 ovarian = test system: IGROV1 ovarian
ACHN renal = test system: ACHN renal
SNB-19 CNS = test system: SNB-19 CNS
NCI-H522 lung = test system: NCI-H522 lung
NCI-H23 lung = test system: NCI-H23 lung
A549 NSCLC = test system: A549 NSCLC
HS 578T breast = test system: HS 578T breast
HCT-15 colon = test system: HCT-15 colon
MDA-N = test system: MDA-N
MDA-MB-231 breast = test system: MDA-MB-231 breast
RPMI-8226 leukemia = test system: RPMI-8226 leukemia
CCRF-CEM leukemia = test system: CCRF-CEM leukemia
SF-268 CNS = test system: SF-268 CNS
UACC-257 melanoma = test system: UACC-257 melanoma
NCI-H460 lung = test system: NCI-H460 lung
786-0 renal = test system: 786-0 renal
HT29 colon = test system: HT29 colon
OVCAR-3 ovarian = test system: OVCAR-3 ovarian
COLO 205 colon = test system: COLO 205 colon
SK-MEL-28 melanoma = test system: SK-MEL-28 melanoma
SK-OV-3 ovarian = test system: SK-OV-3 ovarian
SK-MEL-2 melanoma = test system: SK-MEL-2 melanoma
HCC-2998 colon = test system: HCC-2998 colon
KM12 colon = test system: KM12 colon
A498 renal = test system: A498 renal
PC-3 prostate = test system: PC-3 prostate
SR leukemia = test system: SR leukemia
U251 CNS = test system: U251 CNS
HOP-62 NSCLC = test system: HOP-62 NSCLC
SF-295 CNS = test system: SF-295 CNS
UO-31 renal = test system: UO-31 renal
OVCAR-5 ovarian = test system: OVCAR-5 ovarian
HL-60(TB) leukemia = test system: HL-60(TB) leukemia
MOLT-4 leukemia = test system: MOLT-4 leukemia
OVCAR-4 ovarian = test system: OVCAR-4 ovarian
NCI-H226 lung = test system: NCI-H226 lung
RXF 393 renal = test system: RXF 393 renal
MALME-3M melanoma = test system: MALME-3M melanoma
TK-10 renal = test system: TK-10 renal

`CN1CCN(c2ccc3[nH]c(C4=C(O)c5nc(CCl)n(C)c5C(=O)C4=O)nc3n2)CC1` was tested, and the GI50 (SW-620 colon) was 3.61 µM, the TGI (SW-620 colon) was 50 µM and > 100 µM and the GI50 (EKVX NSCLC) was 15.9 µM. The TGI (EKVX NSCLC) was 36.9 µM and 40.1 µM, the GI50 (SN12C renal) was 16.9 µM and the TGI (SN12C renal) was 20.5 µM and > 100 µM. The GI50 (UACC-62 melanoma) was 2.46 µM, the TGI (UACC-62 melanoma) was 19.4 µM and 7.37 µM and the GI50 (SF-539 CNS) was 2.17 µM. The GI50 (DU-145 prostate) was 21.9 µM, the TGI (DU-145 prostate) was 22.4 µM and 67 µM and the GI50 (NCI/ADR-RES ovarian) was 88.6 µM. For the same compound, the TGI (NCI/ADR-RES ovarian) was greater than 100 µM, the GI50 (LOX IMVI melanoma) was 3.07 µM and the TGI (LOX IMVI melanoma) was 15.2 µM and 7.43 µM. For the same compound, the GI50 (OVCAR-8 ovarian) was 4.83 µM, the TGI (OVCAR-8 ovarian) was 16.2 µM and 29.2 µM and the GI50 (MDA-MB-435) was 12.6 µM. The TGI (MDA-MB-435) was 19.3 µM and 30.8 µM, the GI50 (CAKI-1 renal) was 24.2 µM and the TGI (CAKI-1 renal) was 37.1 µM and 74.4 µM. For the same compound, the GI50 (K-562 leukemia) was 2.84 µM, the TGI (K-562 leukemia) was 50 µM and > 100 µM and the GI50 (T-47D breast) was 2.15 µM. The TGI (T-47D breast) was 3.99 µM and 6.95 µM, the TGI (SNB-75 CNS) was 18 µM and the GI50 (BT-549 breast) was 17.4 µM. For the same compound, the TGI (BT-549 breast) was 19.3 µM and 40.4 µM, the TGI (MCF7 breast) was 18.5 µM and the GI50 (M14 melanoma) was 19.6 µM. The TGI (M14 melanoma) was 20.1 µM and 52.2 µM, the GI50 (HCT-116 colon) was 15.2 µM and the TGI (HCT-116 colon) was 16.1 µM and > 100 µM. The TGI (SK-MEL-5 melanoma) was 50 µM, the GI50 (IGROV1 ovarian) was 24.5 µM and the TGI (IGROV1 ovarian) was 16 µM and 47.9 µM. The GI50 (ACHN renal) was 5.13 µM, the TGI (ACHN renal) was 30.7 µM and 43.1 µM and the GI50 (SNB-19 CNS) was 11.8 µM. For the same compound, the TGI (SNB-19 CNS) was 16.7 µM and 32.6 µM, the GI50 (NCI-H522 lung) was 3.54 µM and the TGI (NCI-H522 lung) was 3.29 µM and 12.2 µM. For the same compound, the GI50 (NCI-H23 lung) was 18.9 µM, the TGI (NCI-H23 lung) was 30.4 µM and 44.3 µM and the TGI (A549 NSCLC) was 50 µM and > 100 µM. The TGI (HS 578T breast) was 75.5 µM, the TGI (HCT-15 colon) was 50 µM and > 100 µM and the GI50 (MDA-N) was 26.5 µM. For the same compound, the TGI (MDA-N) was 17.4 µM and > 100 µM, the GI50 (MDA-MB-231 breast) was 3.99 µM and the TGI (MDA-MB-231 breast) was 25 µM and 14.8 µM. For the same compound, the GI50 (RPMI-8226 leukemia) was 3.14 µM, the TGI (RPMI-8226 leukemia) was 50 µM and 15.2 µM and the GI50 (CCRF-CEM leukemia) was 15 µM. For the same compound, the TGI (CCRF-CEM leukemia) was > 50 µM and 36.4 µM, the TGI (SF-268 CNS) was 49.1 µM and the TGI (UACC-257 melanoma) was 31.9 µM. The TGI (NCI-H460 lung) was 49.3 µM, the GI50 (786-0 renal) was 6.05 µM and the TGI (786-0 renal) was 50 µM and > 100 µM. For the same compound, the GI50 (HT29 colon) was 13.7 µM, the TGI (HT29 colon) was 25.9 µM and 37.1 µM and the TGI (OVCAR-3 ovarian) was 31.3 µM and 68.6 µM. The GI50 (COLO 205 colon) was 1.79 µM, the TGI (COLO 205 colon) was 28.1 µM and 3.62 µM and the GI50 (SK-MEL-28 melanoma) was 16.1 µM. For the same compound, the TGI (SK-MEL-28 melanoma) was 50 µM and 34.8 µM, the GI50 (SK-OV-3 ovarian) was 19.8 µM and the TGI (SK-OV-3 ovarian) was 50 µM and 51.6 µM. The TGI (SK-MEL-2 melanoma) was 23.5 µM, the TGI (HCC-2998 colon) was 21.4 µM and the GI50 (KM12 colon) was 15.9 µM. For the same compound, the TGI (KM12 colon) was 21 µM and 35.9 µM, the TGI (A498 renal) was 22.1 µM and the GI50 (PC-3 prostate) was 11.7 µM. For the same compound, the TGI (PC-3 prostate) was 50 µM and 29.1 µM, the TGI (SR leukemia) was 50 µM and the GI50 (U251 CNS) was 2.03 µM. The TGI (U251 CNS) was 16.3 µM and 4.12 µM, the GI50 (HOP-62 NSCLC) was 20.7 µM and the TGI (HOP-62 NSCLC) was 19.7 µM and 53.5 µM. For the same compound, the GI50 (SF-295 CNS) was 24 µM, the TGI (SF-295 CNS) was 50 µM and 56.3 µM and the GI50 (UO-31 renal) was 21.8 µM. For the same compound, the TGI (UO-31 renal) was 13.3 µM and > 100 µM, the GI50 (OVCAR-5 ovarian) was 20 µM and the TGI (OVCAR-5 ovarian) was 34.5 µM and 52.7 µM. For the same compound, the GI50 (HL-60(TB) leukemia) was 2.87 µM, the TGI (HL-60(TB) leukemia) was > 50 µM and 8.97 µM and the GI50 (MOLT-4 leukemia) was 2.25 µM. For the same compound, the TGI (MOLT-4 leukemia) was 50 µM and 7.68 µM, the TGI (OVCAR-4 ovarian) was 44.7 µM and 33.7 µM and the GI50 (NCI-H226 lung) was 18.3 µM. For the same compound, the TGI (NCI-H226 lung) was 36.2 µM and 37.7 µM, the GI50 (RXF 393 renal) was 3.49 µM and the TGI (RXF 393 renal) was 9.92 µM and 16.6 µM. The GI50 (MALME-3M melanoma) was 13 µM and the TGI (MALME-3M melanoma) was 11.4 µM and 30 µM.

For `Nc1ccc(Cc2ccc(N=Cc3ccc(OCc4cccc(COc5ccc(C=Nc6ccc(Cc7ccc(N)cc7)cc6)cc5)n4)cc3)cc2)cc1`, the TGI (TK-10 renal) was greater than 100 µM, the TGI (SW-620 colon) was greater than 100 µM and the TGI (EKVX NSCLC) was greater than 100 µM. It also gave a TGI (SN12C renal) greater than 100 µM, a TGI (UACC-62 melanoma) greater than 100 µM and a TGI (SF-539 CNS) of 26.6 µM. For the same compound, the TGI (DU-145 prostate) was greater than 100 µM, the TGI (NCI/ADR-RES ovarian) was greater than 100 µM and the TGI (LOX IMVI melanoma) was greater than 100 µM. It also gave a TGI (OVCAR-8 ovarian) greater than 100 µM, a TGI (MDA-MB-435) greater than 100 µM and a TGI (CAKI-1 renal) greater than 100 µM. For the same compound, the TGI (K-562 leukemia) was greater than 100 µM, the TGI (T-47D breast) was greater than 100 µM and the TGI (SNB-75 CNS) was 39.7 µM. For the same compound, the TGI (BT-549 breast) was greater than 100 µM, the TGI (MCF7 breast) was greater than 100 µM and the TGI (M14 melanoma) was greater than 100 µM. For the same compound, the TGI (HCT-116 colon) was greater than 100 µM, the TGI (SK-MEL-5 melanoma) was greater than 100 µM and the TGI (IGROV1 ovarian) was greater than 100 µM. For the same compound, the TGI (ACHN renal) was greater than 100 µM, the TGI (SNB-19 CNS) was greater than 100 µM and the TGI (NCI-H522 lung) was greater than 100 µM. It also gave a TGI (NCI-H23 lung) greater than 100 µM, a TGI (A549 NSCLC) greater than 100 µM and a TGI (HS 578T breast) greater than 100 µM. For the same compound, the TGI (HCT-15 colon) was greater than 100 µM, the TGI (MDA-N) was greater than 100 µM and the TGI (MDA-MB-231 breast) was greater than 100 µM. It also gave a TGI (RPMI-8226 leukemia) greater than 100 µM, a TGI (CCRF-CEM leukemia) greater than 100 µM and a TGI (SF-268 CNS) greater than 100 µM. It also gave a TGI (UACC-257 melanoma) greater than 100 µM, a TGI (NCI-H460 lung) greater than 100 µM and a TGI (786-0 renal) greater than 100 µM. The TGI (HT29 colon) was greater than 100 µM, the TGI (OVCAR-3 ovarian) was greater than 100 µM and the TGI (COLO 205 colon) was greater than 100 µM. For the same compound, the TGI (SK-MEL-28 melanoma) was greater than 100 µM, the TGI (SK-MEL-2 melanoma) was greater than 100 µM and the TGI (HCC-2998 colon) was greater than 100 µM. The TGI (KM12 colon) was greater than 100 µM, the TGI (A498 renal) was greater than 100 µM and the TGI (PC-3 prostate) was greater than 100 µM. It also gave a TGI (SR leukemia) greater than 100 µM, a TGI (U251 CNS) greater than 100 µM and a TGI (HOP-62 NSCLC) greater than 100 µM. The TGI (SF-295 CNS) was greater than 100 µM, the TGI (UO-31 renal) was greater than 100 µM and the TGI (OVCAR-5 ovarian) was greater than 100 µM. The TGI (HL-60(TB) leukemia) was greater than 100 µM, the TGI (MOLT-4 leukemia) was greater than 100 µM and the TGI (OVCAR-4 ovarian) was greater than 100 µM. It also gave a TGI (NCI-H226 lung) greater than 100 µM, a TGI (RXF 393 renal) of 68 µM and a TGI (MALME-3M melanoma) greater than 100 µM.
